Counter-ions that a name gives are not always drawn.
Columns and labels:
[1] = biological target: T1, recombinant human 5-HT2A receptor (Homo sapiens, UniProt P28223); assay: Radioligand binding studies, 5-HT2A ligand affinity ([3H]Ketanserin competition); details: [3H]Ketanserin displacement, membranes of CHO-K1 cells expressing the receptor, pH 7.4, 32° C.; read-out: pKi for the 5-HT2A receptor (converted)
T1 construct: expressed in transfected cells
Method: (§1) This example illustrates in vitro radioligand binding studies of compound of formula I.
(§2) The binding activity of compounds of this invention in vitro was determined as follows. Duplicate determinations of 5-HT6 ligand affinity were made by competing for binding of [^3H]LSD in cell membranes derived from HEK293 cells stably expressing recombinant human 5-HT6 receptor. Duplicate determinations of 5-HT2A ligand affinity were made by competing for binding of [^3H]Ketanserin (3-(2-(4-(4-fluorobenzoyl)piperidinol)ethyl)-2,4(1H,3H)-quinazolinedione) in cell membranes derived from CHO-K1 cells stably expressing recombinant human 5-HT2A receptor. Membranes were prepared from HEK 293 cell lines by the method described by Monsma et al., Molecular Pharmacology, Vol. 43 pp. 320-327 (1993), and from CHO-K1 cell lines as described by Bonhaus et al., Br J. Pharmacol. June; 115(4):622-8 (1995).
(§3) For estimation of affinity at the 5-HT6 receptor, all determinations were made in assay buffer containing 50 mM Tris-HCl, 10 mM MgSO4, 0.5 mM EDTA, 1 mM ascorbic acid, pH 7.4 at 37° C., in a 250 microliter reaction volume. […]
(§4) Assay tubes containing [^3H] […] LSD or [^3H]Ketanserin were determined as radioactive counts per minute using Packard TopCount.
(§5) Displacement of [^3H]LSD or [^3H]Ketanserin from the binding sites was quantified by fitting concentration-binding data to a 4-parameter logistic equation: […]

[2] = biological target: T2, recombinant human 5-HT6 receptor (Homo sapiens, UniProt P50406); assay: Radioligand binding studies, 5-HT6 ligand affinity ([3H]LSD competition); details: [3H]LSD displacement, membranes of HEK293 cells expressing the receptor, pH 7.4, 37° C.; read-out: pKi for the 5-HT6 receptor (converted)
T2 construct: expressed in transfected cells
Method: as §1, §2, §3, §4, §5

T2 sequence (P50406 whole entry): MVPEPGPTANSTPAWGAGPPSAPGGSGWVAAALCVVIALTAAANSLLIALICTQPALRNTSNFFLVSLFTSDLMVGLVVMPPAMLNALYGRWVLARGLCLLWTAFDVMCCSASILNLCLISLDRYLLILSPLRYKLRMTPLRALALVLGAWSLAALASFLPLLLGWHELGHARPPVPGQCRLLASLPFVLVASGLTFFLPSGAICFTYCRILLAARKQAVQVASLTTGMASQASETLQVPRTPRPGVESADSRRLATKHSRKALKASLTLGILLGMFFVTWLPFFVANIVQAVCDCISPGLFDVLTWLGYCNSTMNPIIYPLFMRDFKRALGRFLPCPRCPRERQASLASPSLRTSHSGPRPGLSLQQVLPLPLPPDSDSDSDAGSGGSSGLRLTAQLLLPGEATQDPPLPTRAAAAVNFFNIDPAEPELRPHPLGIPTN
T1 sequence (P28223 whole entry): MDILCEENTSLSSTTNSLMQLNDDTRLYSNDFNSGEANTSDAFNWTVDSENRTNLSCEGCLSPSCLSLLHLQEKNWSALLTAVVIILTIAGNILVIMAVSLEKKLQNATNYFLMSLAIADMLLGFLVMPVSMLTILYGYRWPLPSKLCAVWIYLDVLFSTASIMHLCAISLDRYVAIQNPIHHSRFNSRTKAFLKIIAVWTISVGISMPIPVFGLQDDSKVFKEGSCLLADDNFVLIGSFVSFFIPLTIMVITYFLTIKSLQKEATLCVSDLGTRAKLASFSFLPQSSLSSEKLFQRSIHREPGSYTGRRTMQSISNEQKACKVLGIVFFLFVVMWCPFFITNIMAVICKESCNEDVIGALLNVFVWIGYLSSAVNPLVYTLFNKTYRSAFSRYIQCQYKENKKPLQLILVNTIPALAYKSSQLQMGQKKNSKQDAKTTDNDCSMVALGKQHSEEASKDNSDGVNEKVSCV

Row | SMILES | melting point [°C] | further results
1 | CCSc1cccc(S(=O)(=O)c2ccc(C3CCNC3)c(O)c2)c1 (centres unmarked) [5-(3-Ethylsulfanyl-benzenesulfonyl)-2-pyrrolidin-3-yl-phenol] |  | Ki [1]: ~0.891 nM
2 | CN1CC[C@@H](c2ccc(S(=O)(=O)c3ccc(O)cc3)cc2F)C1 [4-[3-Fluoro-4-(1-methyl-(S)-pyrrolidin-3-yl)-benzenesulfonyl]-phenol] |  | Ki [2]: ~0.1 nM
3 | Cc1cc(S(=O)(=O)c2ccc(O)c(Cl)c2)ccc1C1CCNC1 (centres unmarked) (as salt: HCl) [Compound 32, 2-Chloro-4-(3-methyl-4-pyrrolidin-3-yl-benzenesulfonyl)-phenol] | 110 to 112.9 | 
4 | Cc1cc(S(=O)(=O)c2ccc(O)c(C(C)C)c2)ccc1C1CCNC1 (centres unmarked) [Compound 85, 2-Isopropyl-4-(3-methyl-4-pyrrolidin-3-yl-benzenesulfonyl)-phenol] | 125 to 128 | 
5 | CCS(=O)(=O)c1cccc(S(=O)(=O)c2ccc(C3CCNC3)c(O)c2)c1 (centres unmarked) (as salt: HCl) [Compound 20, 5-(3-Ethanesulfonyl-benzenesulfonyl)-2-pyrrolidin-3-yl-phenol] | 124.5 to 126.7 | 
6 | O=S(=O)(c1cccc(F)c1)c1ccc([C@@H]2CCNC2)c(O)c1 (as salt: HCl) [Compound 35, 5-(3-Fluoro-benzenesulfonyl)-2-(S)-pyrrolidin-3-yl-phenol] | 239 to 241 | 

Further lines, with some results ahead:

Row | melting point [°C] | SMILES | further results
7 | 56 to 58 | Cc1cc(S(=O)(=O)c2ccccc2)ccc1[C@@H]1CCN(S(C)(=O)=O)C1 [Compound 115, 3-(4-Benzenesulfonyl-2-methyl-phenyl)-1-methanesulfonyl-(S)-pyrrolidine] | 
8 | 186 to 187.5 | Cc1cc(S(=O)(=O)c2ccc(O)cc2)ccc1C1CCN(C)C1 (centres unmarked) (as salt: HCl) [Compound 51, 4-[3-Methyl-4-(1-methyl-pyrrolidin-3-yl)-benzenesulfonyl]-phenol] | 
